Earlier results as cited in patent US20060100282A1, “Novel diaminopropane-based metal chelators as antiviral agents” (Bioflexis, LLC, priority 2004, published 2006).

Columns and labels:
HIV-1 integrase (IN) [1] = biological target: T1, HIV-1 integrase (IN) (Human immunodeficiency virus type 1 group M subtype B, UniProt P12497); details: result in words
T1 construct: HIV-1 recombinant IN (HIV-1NL 4-3 Integrase, NIH AIDS Reagent program Catalog No: 2959); purchased NIH AIDS Reagent program 2959

HIV-1 integrase (IN) [2] = biological target: T1, HIV-1 integrase (IN); details: result in words; remark: listed apart in the source

Row | Structure (SMILES) | inhibition of 3′ processing (HIV-1 integrase (IN) [1]) | inhibition of strand transfer reaction (HIV-1 integrase (IN) [2])
1 | O=C(O)C(=O)CC(=O)c1cccn1Cc1ccc(F)cc1 [Inhibitor 8] | do not inhibit 3′ processing | inhibit strand transfer reaction
2 | O=C(O)C(=O)CC(=O)c1cc(OCc2ccccc2)cc(OCc2ccccc2)c1 [Inhibitor 6] | do not inhibit 3′ processing | inhibit strand transfer reaction
